{
  "source": "patent US8796284B2",
  "about": "“4-aminopyrimidine derivatives and their as as adenosine A2a receptor antagonists” (Palobiofarma, S.L., priority 2010, dated 2014)",
  "key": {"hA2a receptors": {"target": "hA2a receptors (Homo sapiens (Human), UniProt P29274)", "sequence (P29274 whole entry)": "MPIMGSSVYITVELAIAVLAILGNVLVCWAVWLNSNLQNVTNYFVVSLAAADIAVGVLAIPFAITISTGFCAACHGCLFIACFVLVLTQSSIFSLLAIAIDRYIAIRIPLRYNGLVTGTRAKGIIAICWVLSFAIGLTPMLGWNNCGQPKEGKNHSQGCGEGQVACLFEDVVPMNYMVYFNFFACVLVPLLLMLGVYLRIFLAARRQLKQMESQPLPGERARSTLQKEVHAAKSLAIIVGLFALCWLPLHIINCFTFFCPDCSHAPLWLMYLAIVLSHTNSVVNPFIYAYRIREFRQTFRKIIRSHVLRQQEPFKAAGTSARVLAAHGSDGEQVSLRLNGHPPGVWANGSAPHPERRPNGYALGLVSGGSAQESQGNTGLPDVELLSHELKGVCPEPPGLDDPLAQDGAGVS", "assay": "Adenosine A2a receptor subtype competition radioligand binding assay", "settings": "membranes from hA2a receptors transfected to HeLa cells, [3H]ZM241385 as radioligand, Cheng-Prusoff", "description": "Pharmacological Activity Adenosine A2a Receptor Subtype Competition Radioligand Binding Assay\nHuman membranes from recombinant adenosine receptors were purchased from Receptor Biology, Inc. (USA)\nCompetition assays were carried out by incubation of membranes from hA2a receptors transfected to HeLa cells, [^3H]ZM241385 as radioligand, buffer (50 mM Tris-HCl (pH=7.4), 10 mM MgCl2, 1 mM EDTA, 2 units/ml adenosine deaminase), and unlabelled ligand in a total volume of 0.2 ml for 30 min at 25° C. NECA was used to determinate non-specific binding. Filter over Schleicher&Schuell GF/52 filters (pre-soaked 0.5% polyethylenimine) in a Brandel cell harvester. Unbound radioligand was removed with 3×250 μl ice-cold 50 mM Tris-HCl (pH=7.4), 10 mM MgCl and 1 mM EDTA.\n(§1) Concentration-response binding competition curves were carried out by assaying 6 different concentrations (range between 10 nm to 100 μM). […] IC50 values were obtained by fitting the data with non-linear regression, with Prism 2.1 software (GraphPad, San Diego, Calif.). Cyclic Adenosine Monophosphate Production Measurement."}, "A2a adenosine receptor": {"target": "A2a adenosine receptor (Homo sapiens (Human), UniProt P29274)", "sequence (P29274 whole entry)": "as above", "assay": "Cyclic adenosine monophosphate (cAMP) production measurement in CHO-A2A cells", "assay_type": "cell-based", "settings": "1 μM NECA, 30 μM rolipram, cAMP enzymeimmunoassay", "description": "as §1\nThese assays were performed at adenosine receptors transfected using a cAMP enzymeimmunoassay kit (Amersham Biosciences). CHO-A2A cells were seeded (10000 cells/well) in 96-well culture plates and incubated at 37° C. in an atmosphere with 5% CO2 in Dulbecco's Modified Eagle's Medium Nutrient Mixture F-12 (DMEM F-12), containing 10% Foetal Calf Serum (FCS) and 1% L-Glutamine. Cells were washed 3× with 200 μl assay medium (DMEM-F12 and 25 mM HEPES pH=7.4) and pre-incubated with assay medium containing 30 μM rolipram and test compounds at 37° C. for 15 min. 1 μM NECA was incubated for 15 min at 37° C. (total incubation time 30 min). Reaction was stopped with lysis buffer supplied in the kit and the enzymeimmunoassay was carried out for detection of intracellular cAMP at 450 nm in an Ultra Evolution detector (Tecan). Data were fitted by non-linear regression using GraphPad Prism v2.01 (GraphPad Software)."}},
  "data": [
    {"smiles": "Nc1nc(-n2cccn2)nc(N2CCCC2)c1Br", "note": "[Example 3, 5-bromo-2-(1H-pyrazol-1-yl)-6-(pyrrolidin-1-yl)pyrimidin-4-amine]", "values": [
      {"measurement": "Ki", "setting": "hA2a receptors", "value": 11, "unit": "nM"}
    ]},
    {"smiles": "Nc1nc(-n2cccn2)nc(NC2CCCC2)c1Br", "note": "[Example 4, 5-bromo-N^4-cyclopentyl-2-(1H-pyrazol-1-yl)pyrimidine-4,6-diamine]", "values": [
      {"measurement": "Ki", "setting": "hA2a receptors", "value": 6, "unit": "nM"}
    ]},
    {"smiles": "Nc1nc(-n2cccn2)nc(N2CCCCC2)c1Br", "note": "[Example 5, 5-bromo-6-(piperidin-1-yl)-2-(1H-pyrazol-1-yl)pyrimidin-4-amine]", "values": [
      {"measurement": "Ki", "setting": "hA2a receptors", "value": 14, "unit": "nM"}
    ]},
    {"smiles": "Nc1nc(-n2cccn2)nc(NC2CC2)c1Br", "note": "[Example 8, 5-bromo-N^4-cyclopropyl-2-(1H-pyrazol-1-yl)pyrimidine-4,6-diamine]", "values": [
      {"measurement": "Ki", "setting": "hA2a receptors", "value": 18, "unit": "nM"},
      {"measurement": "Ki", "setting": "A2a adenosine receptor", "value": 60, "unit": "nM"}
    ]},
    {"smiles": "Nc1nc(-n2cccn2)nc(N2CCC2)c1Br", "note": "[Example 9, 6-(azetidin-1-yl)-5-bromo-2-(1H-pyrazol-1-yl)pyrimidin-4-amine]", "values": [
      {"measurement": "Ki", "setting": "hA2a receptors", "value": 33, "unit": "nM"}
    ]},
    {"smiles": "Nc1nc(-n2cccn2)nc(NC2CCC2)c1Br", "note": "[Example 10, 5-bromo-N^4-cyclobutyl-2-(1H-pyrazol-1-yl)pyrimidine-4,6-diamine]", "values": [
      {"measurement": "Ki", "setting": "hA2a receptors", "value": 21, "unit": "nM"}
    ]},
    {"smiles": "CN(C)c1nc(-n2cccn2)nc(N)c1Br", "note": "[Example 13, 5-bromo-N^4,N^4-dimethyl-2-(1H-pyrazol-1-yl)pyrimidine-4,6-diamine]", "values": [
      {"measurement": "Ki", "setting": "hA2a receptors", "value": 35, "unit": "nM"},
      {"measurement": "Ki", "setting": "A2a adenosine receptor", "value": 50, "unit": "nM"}
    ]},
    {"smiles": "COC[C@H]1CCCN1c1nc(-n2cccn2)nc(N)c1Br", "note": "[Example 20, 5-bromo-6-((R)-2-(methoxymethyl)pyrrolidin-1-yl)-2-(1H-pyrazol-1-yl)pyrimidin-4-amine]", "values": [
      {"measurement": "Ki", "setting": "hA2a receptors", "value": 14, "unit": "nM"}
    ]},
    {"smiles": "CNc1nc(-n2cccn2)nc(N)c1Br", "note": "[Example 24, 5-bromo-N^4-methyl-2-(1H-pyrazol-1-yl)pyrimidine-4,6-diamine]", "values": [
      {"measurement": "Ki", "setting": "hA2a receptors", "value": 16, "unit": "nM"}
    ]},
    {"smiles": "Nc1nc(-n2cccn2)nc(NCC2CC2)c1Br", "note": "[Example 29, 5-bromo-N^4-(cyclopropylmethyl)-2-(1H-pyrazol-1-yl)pyrimidine-4,6-diamine]", "values": [
      {"measurement": "Ki", "setting": "hA2a receptors", "value": 10, "unit": "nM"}
    ]},
    {"smiles": "CCSc1nc(-n2cccn2)nc(N)c1Br", "note": "[Example 36, 5-bromo-6-(ethylthio)-2-(1H-pyrazol-1-yl)pyrimidin-4-amine]", "values": [
      {"measurement": "Ki", "setting": "hA2a receptors", "value": 8, "unit": "nM"}
    ]},
    {"smiles": "CC(C)Sc1nc(-n2cccn2)nc(N)c1Br", "note": "[Example 38, 5-bromo-6-(isopropylthio)-2-(1H-pyrazol-1-yl)pyrimidin-4-amine]", "values": [
      {"measurement": "Ki", "setting": "hA2a receptors", "value": 7, "unit": "nM"}
    ]},
    {"smiles": "Nc1nc(-n2cccn2)nc(OCC(F)(F)F)c1Br", "note": "[Example 44, 6-(2,2,2-trifluoroethoxy)-5-bromo-2-(1H-pyrazol-1-yl)pyrimidin-4-amine]", "values": [
      {"measurement": "Ki", "setting": "hA2a receptors", "value": 14, "unit": "nM"}
    ]},
    {"smiles": "Nc1nc(-n2cccn2)nc(-n2cccn2)c1Cl", "note": "[Example 46, 5-chloro-2,6-di-(1H-pyrazol-1-yl)pyrimidine-4-amine]", "values": [
      {"measurement": "Ki", "setting": "hA2a receptors", "value": 17, "unit": "nM"}
    ]},
    {"smiles": "N#Cc1c(N)nc(-n2cccn2)nc1-n1cccn1", "note": "[Example 48, 4-amino-2,6-di-(1H-pyrazol-1-yl)pyrimidine-5-carbonitrile]", "values": [
      {"measurement": "Ki", "setting": "hA2a receptors", "value": 7, "unit": "nM"}
    ]},
    {"smiles": "Nc1nc(-c2nccs2)nc(-c2nccs2)c1Br", "note": "[Example 93, 5-Bromo-2,6-di(thiazol-2-yl)pyrimidin-4-amine]", "values": [
      {"measurement": "Ki", "setting": "hA2a receptors", "value": 1, "unit": "nM"},
      {"measurement": "Ki", "setting": "A2a adenosine receptor", "value": 12, "unit": "nM"}
    ]}
  ]
}
